Common to all, as to type: cell-based
For test [1], the target named is T1, 11-beta-hydroxysteroid dehydrogenase 1 (Homo sapiens, UniProt P28845). Briefly: Inhibition of human 11beta-HSD1 in expressed in HEK293 cells microsomal fractions incubated with NADPH and [3H]-cortisone by scintillation proximity assay.
Target sequence in this assay (P28845 whole entry): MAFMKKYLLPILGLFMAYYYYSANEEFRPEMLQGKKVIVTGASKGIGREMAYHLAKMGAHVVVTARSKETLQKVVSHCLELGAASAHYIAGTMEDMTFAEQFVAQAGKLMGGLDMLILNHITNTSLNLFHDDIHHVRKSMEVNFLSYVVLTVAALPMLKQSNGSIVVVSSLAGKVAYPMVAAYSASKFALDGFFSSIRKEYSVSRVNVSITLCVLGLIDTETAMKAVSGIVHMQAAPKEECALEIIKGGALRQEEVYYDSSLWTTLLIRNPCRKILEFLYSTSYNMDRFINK
Test [2] has as its target 11-beta-hydroxysteroid dehydrogenase 1 (Mus musculus) (UniProt P50172). Briefly: Inhibition of mouse 11beta-HSD1 in expressed in HEK293 cells microsomal fractions incubated with NADPH and [3H]-cortisone at 10 uM by scintillation proximity assay.
Test [3] concerns the target 11-beta-hydroxysteroid dehydrogenase 1 (Mus musculus, UniProt P50172). The test can be described thus: Inhibition of mouse 11beta-HSD1 in expressed in HEK293 cells microsomal fractions incubated with NADPH and [3H]-cortisone by scintillation proximity assay.
Test [4] deals with T1, 11-beta-hydroxysteroid dehydrogenase 1. Briefly: Inhibition of human 11beta-HSD1 in expressed in HEK293 cells microsomal fractions incubated with NADPH and [3H]-cortisone at 10 uM by scintillation proximity assay.
Target sequence in this assay (P28845 whole entry, looked up): as the sequence (P28845 whole entry) above

Sequence of 11-beta-hydroxysteroid dehydrogenase 1 (Mus musculus) (P50172 whole entry, looked up): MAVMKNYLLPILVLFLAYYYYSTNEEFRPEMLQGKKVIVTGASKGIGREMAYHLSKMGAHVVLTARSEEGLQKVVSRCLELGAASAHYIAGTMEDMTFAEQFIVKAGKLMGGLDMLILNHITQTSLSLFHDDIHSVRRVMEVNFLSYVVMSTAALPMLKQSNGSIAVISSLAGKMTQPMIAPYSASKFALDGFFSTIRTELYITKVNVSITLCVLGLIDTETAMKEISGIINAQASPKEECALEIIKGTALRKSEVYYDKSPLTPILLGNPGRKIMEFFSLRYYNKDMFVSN
Sequence of 11-beta-hydroxysteroid dehydrogenase 1 (Mus musculus, UniProt P50172) (P50172 whole entry): as the sequence (P50172 whole entry, looked up) above

As for `C=C(CC[C@@H](COC(C)=O)[C@H]1CC[C@@]2(C)[C@@H]3CC[C@@H](C(=C)C)[C@@]4(CCC(=O)O)C[C@@]34CC[C@]12C)C(C)C`, the IC50 in test [1] came out at 4.1 µM; in test [3], 2.8 µM. Besides, the inhibition in test [2] was 73%; in test [4] it was above 60%.
In test [1], `C=C(CC[C@@H](COC(C)=O)[C@H]1CC[C@@]2(C)[C@@H]3CC[C@@H](C(C)(C)O)[C@@]4(CCC(=O)O)C[C@@]34CC[C@]12C)C(C)C` had an IC50 of 3.8 µM.
Turning to `C=C(CC[C@@H](CO)[C@H]1CC[C@@]2(C)[C@@H]3CC[C@@H](C(=C)C)[C@@]4(CCC(=O)O)C[C@@]34CC[C@]12C)C(C)C`, the IC50 in test [1] is 1.4 µM; in test [3] it was 0.49 µM. The figures for the inhibition in test [2] and in test [4] were 94% and above 80%, respectively.
As to `C=C(CC[C@@H](C(=O)O)[C@H]1CC[C@@]2(C)[C@@H]3CC[C@H]4C(C)(C)C(=O)CC[C@@]45C[C@@]35CC[C@]12C)C(C)C`, the IC50 in test [1] turned out to be 2.3 µM. The inhibition in test [2] is above 60%.

Values taken from ChEMBL document CHEMBL3352672, “Lithocarpic acids O-S, five homo-cycloartane derivatives from the cupules of Lithocarpus polystachyus” (Bioorg Med Chem Lett, 2014).
